Converted amounts (≈) assume the structure as drawn.
What was measured:
[1] = Cmax in Wistar rat plasma at 0.015 mg/kg, it administered as solution; type: ADME, organism-based; parameters: dose 0.015 mg/kg; details: inhaled or intranasal
Rattus norvegicus [2] = experiment: (§1) fCmax in Brown Norway rat model of ovalbumin-induced inflammation assessed inhibition of eosinophil infiltration in bronchoalveolar lavage at 0.3 mg/kg, it administered 1 hr before ovalbumin aerosol challenge and measured 24 hrs post challenge by hematology analysis relative to control; type: organism-based; details: in vivo, inhaled_or_intranasal
Rattus norvegicus [3] = experiment: as §1, with “Anti-inflammatory activity” for “fCmax”, “neutrophils” for “eosinophil”, “0.1” for “0.3”; type: functional; details: inhaled or nasal
[4] = Oral bioavailability in Wistar rat at 1 mg/kg; type: ADME, organism-based; details: in vivo
[5] = Drug metabolism in rat liver microsomes assessed as disappearance of parent compound at 5 uM after 30 mins in presence of NADPH by UPLC-MS/MS analysis; type: ADME, microsome; details: read-out: Drug metabolism
[6] = Half life in Wistar rat plasma at 0.3 mg/kg, it administered as suspension; type: ADME, organism-based; details: inhaled or intranasal
[7] = Half life in Wistar rat lung at 0.015 mg/kg, it administered as solution; type: ADME, organism-based; details: inhaled or intranasal
[8] = Drug metabolism in human liver microsomes assessed as disappearance of parent compound at 5 uM after 30 mins in presence of NADPH by UPLC-MS/MS analysis; type: ADME, microsome; details: read-out: Drug metabolism
[9] = Cmax in Wistar rat lung at 0.015 mg/kg, it administered as solution; type: ADME, organism-based; parameters: dose 0.015 mg/kg; details: inhaled or intranasal
[10] = Protein binding in rat plasma at 1 uM by equilibrium dialysis; type: ADME, cell-free; details: read-out: PPB (converted)
Rattus norvegicus [11] = experiment: as §1, with “Anti-inflammatory activity” for “fCmax”; type: functional; details: inhaled or nasal
[12] = Cmax in Wistar rat lung at 0.3 mg/kg, it administered as suspension; type: ADME, organism-based; parameters: dose 0.3 mg/kg; details: inhaled or intranasal
[13] = AUC in Wistar rat lung at 0.015 mg/kg, it administered as solution; type: ADME, organism-based; details: in vivo, inhaled_or_intranasal
[14] = Cmax in Wistar rat at 1 mg/kg, iv; type: ADME, organism-based; parameters: dose 1 mg/kg, route intravenous; details: in vivo
[15] = Drug metabolism in human liver microsomes assessed as disappearance of parent compound at 5 uM preincubated for 3 mins followed UDPG addition and measured after 120 mins by UPLC-MS/MS analysis; type: ADME, microsome; details: read-out: Drug metabolism
[16] = Half life in Wistar rat plasma at 0.015 mg/kg, it administered as solution; type: ADME, organism-based; details: inhaled or intranasal
[17] = Ratio of AUC in lung to plasma of Wistar rat at 0.015 mg/kg, it administered as solution; type: ADME, organism-based
[18] = target: PI3-kinase p110-delta/p85-alpha (Homo sapiens, UniProt O00329)
Description: Inhibition of recombinant human N-terminal His-tagged full length p110delta/recombinant human full length p85alpha using PIP2 as substrate preincubated for 30 mins followed by substrate addition by HTRF assay

[19] = AUC in Wistar rat plasma at 0.3 mg/kg, it administered as suspension; type: ADME, organism-based; details: inhaled or intranasal
[20] = Thermodynamic aqueous solubility of the compound at pH 7.4; type: physicochemical; details: buffer, read-out: Therm_solubility
[21] = target: Voltage-gated inwardly rectifying potassium channel KCNH2 (Homo sapiens, UniProt Q12809); experiment: Inhibition of human ERG up to 10 uM
[22] = Cmax in Wistar rat plasma at 0.3 mg/kg, it administered as suspension; type: ADME, organism-based; parameters: dose 0.3 mg/kg; details: inhaled or intranasal
[23] = target: T1, Phosphatidylinositol 4,5-bisphosphate 3-kinase catalytic subunit delta isoform (Homo sapiens, UniProt O00329); experiment: Inhibition of PI3Kdelta in human THP-1 cells assessed as reduction in M-CSF-stimulated AKT phosphorylation at Thr308 preincubated for 30 mins followed by M-CSF addition for 3 mins by ELISA; type: cell-based
T1 sequence (O00329 whole entry): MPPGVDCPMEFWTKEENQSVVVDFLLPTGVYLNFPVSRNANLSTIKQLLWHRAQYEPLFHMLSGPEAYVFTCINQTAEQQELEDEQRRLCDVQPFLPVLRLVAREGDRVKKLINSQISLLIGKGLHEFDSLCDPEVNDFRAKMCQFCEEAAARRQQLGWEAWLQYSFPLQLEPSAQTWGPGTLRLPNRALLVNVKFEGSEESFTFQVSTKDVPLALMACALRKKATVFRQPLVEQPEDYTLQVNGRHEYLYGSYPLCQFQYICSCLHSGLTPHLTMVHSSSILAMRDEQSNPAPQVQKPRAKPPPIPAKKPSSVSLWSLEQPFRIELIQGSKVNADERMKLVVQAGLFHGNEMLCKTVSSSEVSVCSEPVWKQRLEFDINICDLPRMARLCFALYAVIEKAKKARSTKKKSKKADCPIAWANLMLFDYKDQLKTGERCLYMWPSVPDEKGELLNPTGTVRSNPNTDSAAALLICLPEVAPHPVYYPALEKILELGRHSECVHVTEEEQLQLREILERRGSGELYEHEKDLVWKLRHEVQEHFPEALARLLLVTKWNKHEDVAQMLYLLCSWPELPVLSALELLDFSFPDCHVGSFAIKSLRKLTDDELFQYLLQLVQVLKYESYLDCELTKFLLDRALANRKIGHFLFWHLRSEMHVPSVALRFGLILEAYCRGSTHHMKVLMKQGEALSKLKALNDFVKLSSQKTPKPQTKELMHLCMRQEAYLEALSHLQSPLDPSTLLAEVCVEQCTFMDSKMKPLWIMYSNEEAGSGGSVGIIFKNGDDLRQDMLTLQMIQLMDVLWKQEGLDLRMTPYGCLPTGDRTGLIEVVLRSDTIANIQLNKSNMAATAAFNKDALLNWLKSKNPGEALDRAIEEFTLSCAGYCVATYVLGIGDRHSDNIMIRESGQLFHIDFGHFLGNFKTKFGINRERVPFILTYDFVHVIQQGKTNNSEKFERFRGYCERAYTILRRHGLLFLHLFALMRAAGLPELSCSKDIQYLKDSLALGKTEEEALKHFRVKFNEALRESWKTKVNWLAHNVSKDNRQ

[24] = Ratio of AUC in lung to plasma of Wistar rat at 0.3 mg/kg, it administered as suspension; type: ADME, organism-based
[25] = target: PI3-kinase p110-alpha/p85-alpha (Homo sapiens, UniProt P42336)
Description: Inhibition of recombinant human N-terminal His6-tagged full length p110alpha/recombinant human full length p85alpha using PIP2 as substrate preincubated for 30 mins followed by substrate addition by HTRF assay

[26] = Volume of distribution at steady state in Wistar rat at 1 mg/kg, iv; type: ADME, organism-based; details: in vivo, read-out: Vdss
[27] = Apparent permeability of the compound at 20 uM by PAMPA assay; type: ADME
[28] = AUC in Wistar rat plasma at 0.015 mg/kg, it administered as solution; type: ADME, organism-based; details: inhaled or intranasal
[29] = AUC in Wistar rat lung at 0.3 mg/kg, it administered as suspension; type: ADME, organism-based; details: in vivo, inhaled_or_intranasal
[30] = target: Phosphatidylinositol 4,5-bisphosphate 3-kinase catalytic subunit gamma isoform (Homo sapiens, UniProt P48736); experiment: Inhibition of recombinant human N-terminal His6-tagged full length p110gamma using PIP2 as substrate preincubated for 30 mins followed by substrate addition by HTRF assay
Rattus norvegicus [31] = experiment: as §1, with “Anti-inflammatory activity” for “fCmax”, “0.1” for “0.3”; type: functional; details: inhaled or nasal
[32] = Drug metabolism in rat liver microsomes assessed as disappearance of parent compound at 5 uM preincubated for 3 mins followed UDPG addition and measured after 120 mins by UPLC-MS/MS analysis; type: ADME, microsome; details: read-out: Drug metabolism
PI3K p110 beta/p85 alpha = PI3K p110 beta/p85 alpha (Homo sapiens, UniProt P42338)
Description: Inhibition of recombinant human N-terminal His6-tagged full length p110beta/recombinant human full length p85alpha using PIP2 as substrate preincubated for 30 mins followed by substrate addition and HTRF assay

[33] = Half life in Wistar rat at 1 mg/kg, iv; type: ADME, organism-based; details: in vivo
[34] = Half life in Wistar rat lung at 0.3 mg/kg, it administered as suspension; type: ADME, organism-based; details: inhaled or intranasal
Rattus norvegicus [35] = experiment: as §1, with “Anti-inflammatory activity” for “fCmax”, “neutrophil” for “eosinophil”; type: functional; details: inhaled or nasal
[36] = AUC in Wistar rat at 1 mg/kg, iv; type: ADME, organism-based; details: in vivo
[37] = Clearance in Wistar rat at 1 mg/kg, iv; type: ADME, organism-based; details: in vivo
Rattus norvegicus [38] = experiment: as §1, with “Anti-inflammatory activity” for “fCmax”, “neutrophil” for “eosinophil”, “1” for “0.3”; type: functional; details: inhaled or nasal
[39] = other tissue, inhaled_or_intranasal
[40] = Wistar, lung and plasma, inhaled or intranasal

PI3K p110 beta/p85 alpha, sequence (P27986 whole entry): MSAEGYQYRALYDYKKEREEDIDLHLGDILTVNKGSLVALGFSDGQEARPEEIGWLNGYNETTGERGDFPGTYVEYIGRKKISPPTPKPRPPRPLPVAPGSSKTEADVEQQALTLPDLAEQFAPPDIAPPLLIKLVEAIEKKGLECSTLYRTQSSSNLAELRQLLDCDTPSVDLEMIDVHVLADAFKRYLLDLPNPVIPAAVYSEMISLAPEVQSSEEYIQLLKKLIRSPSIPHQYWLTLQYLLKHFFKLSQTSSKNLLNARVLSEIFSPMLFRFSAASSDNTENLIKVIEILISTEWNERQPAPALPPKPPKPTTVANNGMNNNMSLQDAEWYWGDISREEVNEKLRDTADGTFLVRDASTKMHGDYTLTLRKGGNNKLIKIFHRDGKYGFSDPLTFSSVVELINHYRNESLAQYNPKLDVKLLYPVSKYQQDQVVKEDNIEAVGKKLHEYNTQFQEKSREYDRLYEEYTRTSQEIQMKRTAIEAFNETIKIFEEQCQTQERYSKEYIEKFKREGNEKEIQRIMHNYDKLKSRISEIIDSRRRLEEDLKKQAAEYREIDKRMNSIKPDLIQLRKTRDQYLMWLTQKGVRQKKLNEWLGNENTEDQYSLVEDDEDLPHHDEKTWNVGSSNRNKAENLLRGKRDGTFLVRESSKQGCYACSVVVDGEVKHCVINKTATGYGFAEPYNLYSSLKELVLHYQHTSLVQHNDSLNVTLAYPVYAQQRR
PI3K p110 beta/p85 alpha, sequence (P42338 whole entry): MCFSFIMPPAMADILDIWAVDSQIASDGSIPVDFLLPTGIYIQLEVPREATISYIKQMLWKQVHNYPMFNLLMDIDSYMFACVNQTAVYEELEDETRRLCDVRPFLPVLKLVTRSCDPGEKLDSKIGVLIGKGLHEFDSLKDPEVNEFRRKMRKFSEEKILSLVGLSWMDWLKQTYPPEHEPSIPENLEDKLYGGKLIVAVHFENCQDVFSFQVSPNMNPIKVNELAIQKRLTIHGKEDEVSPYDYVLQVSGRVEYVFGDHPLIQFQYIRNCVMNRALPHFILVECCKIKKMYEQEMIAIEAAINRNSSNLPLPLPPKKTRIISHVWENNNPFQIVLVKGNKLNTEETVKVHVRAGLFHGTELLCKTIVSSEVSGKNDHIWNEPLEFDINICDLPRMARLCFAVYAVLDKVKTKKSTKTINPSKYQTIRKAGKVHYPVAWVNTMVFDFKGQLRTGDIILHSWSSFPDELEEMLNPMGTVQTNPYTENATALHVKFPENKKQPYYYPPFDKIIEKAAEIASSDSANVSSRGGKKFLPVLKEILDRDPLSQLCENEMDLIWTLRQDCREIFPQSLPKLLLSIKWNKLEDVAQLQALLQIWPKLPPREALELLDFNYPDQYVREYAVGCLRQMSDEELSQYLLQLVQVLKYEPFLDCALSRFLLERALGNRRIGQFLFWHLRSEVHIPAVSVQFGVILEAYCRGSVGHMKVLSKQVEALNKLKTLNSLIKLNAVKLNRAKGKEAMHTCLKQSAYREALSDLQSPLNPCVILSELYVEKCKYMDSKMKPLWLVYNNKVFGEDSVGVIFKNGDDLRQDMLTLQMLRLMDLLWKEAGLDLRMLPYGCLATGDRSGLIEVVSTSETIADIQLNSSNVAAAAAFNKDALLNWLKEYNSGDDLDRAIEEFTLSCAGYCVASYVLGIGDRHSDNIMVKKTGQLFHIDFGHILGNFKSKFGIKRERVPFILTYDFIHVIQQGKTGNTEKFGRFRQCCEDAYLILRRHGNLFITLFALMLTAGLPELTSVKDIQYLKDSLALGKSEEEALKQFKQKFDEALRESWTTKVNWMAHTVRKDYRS
PI3-kinase p110-delta/p85-alpha, sequence (P27986 whole entry, one chain of several): as the sequence (P27986 whole entry) above
PI3-kinase p110-alpha/p85-alpha, sequence (P27986 whole entry): as above
PI3-kinase p110-alpha/p85-alpha, sequence (P42336 whole entry): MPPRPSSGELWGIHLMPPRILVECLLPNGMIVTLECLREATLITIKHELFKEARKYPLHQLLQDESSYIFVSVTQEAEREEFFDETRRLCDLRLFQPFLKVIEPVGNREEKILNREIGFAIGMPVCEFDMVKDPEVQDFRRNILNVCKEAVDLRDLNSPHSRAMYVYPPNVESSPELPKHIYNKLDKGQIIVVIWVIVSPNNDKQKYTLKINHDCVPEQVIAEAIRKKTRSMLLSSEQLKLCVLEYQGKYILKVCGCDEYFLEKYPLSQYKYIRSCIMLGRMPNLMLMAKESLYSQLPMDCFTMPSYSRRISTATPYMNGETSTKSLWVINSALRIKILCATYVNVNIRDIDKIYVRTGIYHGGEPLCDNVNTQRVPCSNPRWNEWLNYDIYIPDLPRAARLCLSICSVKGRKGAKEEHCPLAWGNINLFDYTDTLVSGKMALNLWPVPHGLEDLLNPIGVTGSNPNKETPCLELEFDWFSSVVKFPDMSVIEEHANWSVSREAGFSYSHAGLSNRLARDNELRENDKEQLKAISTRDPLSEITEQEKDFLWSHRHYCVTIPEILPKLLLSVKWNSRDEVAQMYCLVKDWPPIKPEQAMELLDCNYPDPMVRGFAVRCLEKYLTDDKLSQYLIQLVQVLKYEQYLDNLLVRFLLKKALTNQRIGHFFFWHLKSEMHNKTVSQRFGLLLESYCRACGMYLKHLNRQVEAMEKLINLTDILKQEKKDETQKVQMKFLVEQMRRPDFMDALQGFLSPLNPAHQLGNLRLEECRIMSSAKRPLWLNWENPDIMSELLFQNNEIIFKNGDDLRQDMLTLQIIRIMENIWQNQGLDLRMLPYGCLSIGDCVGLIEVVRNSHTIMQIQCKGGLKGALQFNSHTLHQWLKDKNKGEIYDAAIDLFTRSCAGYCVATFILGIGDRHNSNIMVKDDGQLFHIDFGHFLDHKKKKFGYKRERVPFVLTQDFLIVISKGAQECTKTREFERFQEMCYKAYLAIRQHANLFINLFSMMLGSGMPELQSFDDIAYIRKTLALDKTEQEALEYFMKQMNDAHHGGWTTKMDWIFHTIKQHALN
Phosphatidylinositol 4,5-bisphosphate 3-kinase catalytic subunit gamma isoform, sequence (P48736 whole entry, canonical isoform): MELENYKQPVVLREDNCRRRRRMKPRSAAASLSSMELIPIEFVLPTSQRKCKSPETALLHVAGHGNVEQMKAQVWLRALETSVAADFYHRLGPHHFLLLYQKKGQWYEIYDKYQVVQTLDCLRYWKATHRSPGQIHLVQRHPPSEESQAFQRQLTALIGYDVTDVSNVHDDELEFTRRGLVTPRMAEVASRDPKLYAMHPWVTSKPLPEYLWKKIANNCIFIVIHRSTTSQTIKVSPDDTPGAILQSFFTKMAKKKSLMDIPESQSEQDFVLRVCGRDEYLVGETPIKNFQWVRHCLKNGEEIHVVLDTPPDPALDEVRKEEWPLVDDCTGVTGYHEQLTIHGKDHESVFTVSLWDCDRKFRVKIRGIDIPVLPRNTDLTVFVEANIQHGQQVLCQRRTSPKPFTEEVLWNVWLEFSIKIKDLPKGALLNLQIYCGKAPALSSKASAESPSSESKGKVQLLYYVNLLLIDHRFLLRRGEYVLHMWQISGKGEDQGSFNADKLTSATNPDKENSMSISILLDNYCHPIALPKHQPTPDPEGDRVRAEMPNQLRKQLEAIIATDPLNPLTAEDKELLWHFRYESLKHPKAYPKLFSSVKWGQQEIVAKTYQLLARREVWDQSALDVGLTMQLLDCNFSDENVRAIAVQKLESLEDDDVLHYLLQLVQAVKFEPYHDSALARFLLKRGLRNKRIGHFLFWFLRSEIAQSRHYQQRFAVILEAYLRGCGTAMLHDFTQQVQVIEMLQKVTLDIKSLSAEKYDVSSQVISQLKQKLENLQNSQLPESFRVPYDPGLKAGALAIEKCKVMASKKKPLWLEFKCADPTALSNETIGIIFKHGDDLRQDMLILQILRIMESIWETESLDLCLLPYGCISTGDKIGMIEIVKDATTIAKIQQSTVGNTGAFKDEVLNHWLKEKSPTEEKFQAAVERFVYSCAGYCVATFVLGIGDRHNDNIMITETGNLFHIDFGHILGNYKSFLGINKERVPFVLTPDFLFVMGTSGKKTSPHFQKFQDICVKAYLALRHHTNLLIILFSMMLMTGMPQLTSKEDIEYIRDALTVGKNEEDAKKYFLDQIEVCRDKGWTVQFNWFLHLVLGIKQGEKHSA

Cmax [1] [ng/mL]	bioavailability [4] [%]	metabolised at 0.5 h, 5 µM [5] [%]	half-life [6] [h]	half-life [7] [h]	metabolised at 0.5 h, 5 µM [8] [%]	Cmax [9] [ng/g]	fraction unbound at 1 µM [10]	Cmax [12] [ng/g]	AUC [13] [µg·h/g]	Cmax [14] [ng/mL]	metabolised at 2 h, 5 µM [15] [%]	half-life [16] [h]	IC50 [18] [nM]	AUC [19] [ng·h/mL]	solubility thermodynamic [20] [µg/mL]	IC50 [23] [nM]	IC50 [25] [nM]	Vd [26] [L/kg]	Papp at 20 µM [27] [×10⁻⁶ cm/s]	SMILES	further results
1.4	1	32	3.2	2.8	68	3400	0.011	73300	15.5	455	30	3.2	0.5	96.5	3 (≈ 5.05 µM)	2.7	1900	5.2	0.2	Cc1ccn2nc([C@H](C)Nc3ncnc4[nH]cc(-c5cc(NS(C)(=O)=O)cc6[nH]ccc56)c34)n(-c3ccccc3)c(=O)c12	fCmax (Rattus norvegicus [2]): 0.3 nM; inhibition in vivo at 0.1 mg/kg (Rattus norvegicus [3]): 42%; inhibition in vivo at 0.3 mg/kg (Rattus norvegicus [11]): 55%; Ratio [17, 39]: 2925; inhibition (INH) [21]: Not Active; Cmax [22]: 16400 ng/mL; Ratio [24, 39]: 4763; AUC [28]: 5.3 ng·h/mL; AUC [29]: 459.6 µg·h/g; IC50 [30]: 36 nM; inhibition in vivo at 0.1 mg/kg (Rattus norvegicus [31]): 21%; metabolised at 2 h, 5 µM [32]: 10%; IC50 (PI3K p110 beta/p85 alpha): 10 nM; half-life [33]: 1.7 h; half-life [34]: 4.5 h; inhibition in vivo at 0.3 mg/kg (Rattus norvegicus [35]): 77%; AUC [36]: 171 ng·h/mL; clearance [37]: 96 mL/min/kg
36.3	13	44	1.1	4.7	71	700	0.054	18600	0.2	236	97	0.7	0.5	148	36 (≈ 76.4 µM)	4.4	1100	5.2	1.7	Cc1ccn2nc([C@H](C)Nc3ncnc(N)c3-c3ccc(O)c(F)c3)n(-c3ccccc3)c(=O)c12	Kp [17, 40]: 31; Kp [24, 40]: 207; inhibition in vivo at 1 mg/kg (Rattus norvegicus [38]): 37%; AUC [28]: 6.4 ng·h/mL; AUC [29]: 30.6 µg·h/g; IC50 [30]: 11 nM; metabolised at 2 h, 5 µM [32]: 96%; IC50 (PI3K p110 beta/p85 alpha): 87 nM; half-life [33]: 1 h; half-life [34]: 5.7 h; AUC [36]: 149 ng·h/mL; clearance [37]: 112 mL/min/kg

From ChEMBL document CHEMBL4152386, “Discovery of a Novel Inhaled PI3Kδ Inhibitor for the Treatment of Respiratory Diseases” (J Med Chem, 2018)
